# Assay results published in patent US6936628B2, “Oral administration of epothilones” (Bristol-Myers Squibb Company, priority 2002, dated 2005).
# Values joined by “and” are separate entries in the source; they are usually repeats but may differ in a detail not shown here. Equal values may be shown once.
# Tests used:
# [1] = system: tubulin isolated from calf brain; format: biochemical
# [2] = system: human ovarian carcinoma xenograft A2780; assay: Antitumor activity by parenteral administration to rats, A2780 xenograft; format: in vivo, nude rats
# Description: The required number of animals needed to detect a meaningful response were pooled at the start of the experiment and each was given a subcutaneous implant of a tumor fragment (≈50 mg) with a 13-gauge trocar. For treatment of early-stage tumors, the animals were again pooled before distribution to the various treatment and control groups. For treatment of animals with advanced-stage disease, tumors were allowed to grow to the pre-determined size window (tumors outside the range were excluded) and animals were evenly distributed to various treatment and control groups. Treatment of each animal was based on individual body weight. Treated animals were checked daily for treatment related toxicity/mortality. Each group of animals was weighed before the initiation of treatment (Wt1) and then again following the last treatment dose (Wt2). The difference in body weight (Wt2−Wt1) provides a measure of treatment-related toxicity.
# Tumor response was determined by measurement of tumors with a caliper twice a week, until the tumors reach a predetermined “target” size of 1 gm. Tumor weights (mg) were estimated from the formula: Tumor weight=(length×width^2)÷2
# Antitumor activity was evaluated at the maximum tolerated dose (MTD) which is defined as the dose level immediately […] which excessive toxicity (i.e. more than one death) occurred. The MTD was frequently equivalent to OD. When death occurred, the day of death was recorded. Treated mice dying prior to having their tumors reach target size were considered to have died from drug toxicity. No control mice died bearing tumors less than target size. Treatment groups with more than one death caused by drug toxicity were considered to have had excessively toxic treatments and their data were not included in the evaluation of a compound's antitumor efficacy.
# Tumor response end-point was expressed in terms of tumor growth delay (T−C value), defined as the difference in time (days) required for the treated tumors (T) to reach a predetermined target size compared to those of the control group (C).
# To estimate tumor cell kill, the tumor volume doubling time was first calculated with the formula: TVDT=Median time (days) for control tumors to reach target size−Median time (days) for control tumors to reach half the target size and Log cell kill=T−C÷(3.32×TVDT)
# Compound A was evaluated versus the human ovarian carcinoma xenograft A2780 grown in nude rats. […] In comparison, Compound B produced 3.3 LCK at its MTD (2.4 mg/kg/inj, IV, every 8 days×2).
# [3] = system: Pat-7 human ovarian carcinoma; conditions: mouse, in vivo, iv
# [4] = system: Pat-26 human pancreatic carcinoma; conditions: mouse, in vivo, iv
# HCT116/VM46 cells = assay: In vitro cytotoxicity assay (MTS), HCT116/VM46; format: cell-based, human; conditions: concentration for 50% growth inhibition, HCT116/VM46 versus sensitive HCT116
# [5] = system: A2780Tax human ovarian carcinoma; parameters: species or system nude mice; conditions: mouse, in vivo, iv
# [6] = system: HCT116/VM46 human colon carcinoma; parameters: species or system nude mice; conditions: mouse, in vivo, iv
# [7] = system: Pat-21 paclitaxel resistant breast cancer model; parameters: species or system nude mice; conditions: mouse, in vivo, iv
# [8] = cited from earlier work
# in vitro = conditions: human, Caco-2
molecule,measurement,setting,value
"C/C(=C\c1csc(C)n1)[C@@H]1C[C@@H]2O[C@]2(C)CCC[C@H](C)[C@H](O)[C@@H](C)C(=O)C(C)(C)[C@@H](O)CC(=O)N1 (relative stereo) [Compound B, [1S-[1R*,3R*(E),7R*,10S*,11R*,16S*]]-7,11-dihydroxy 8,8,10,12,16-pentamethyl-3-[1-methyl-2-(2-methyl-4-thiazolyl)ethenyl-17-oxa-4-azabicyclo[14.1.0]heptadecane-5,9-dione]","Polymerization Potency, EC0.01",[1],3.5 µM
same,Ratio of Polymerization Potency of Analog/Paclitaxel,[1],0.4
same,LCK,"[2]; A2780 in nude rats, IV, every 8 days×2, at MTD",3.3
same,MTD,"[2]; nude rats bearing A2780, IV, every 8 days×2",2.4 mg/kg/inj
same,LCK,[3],1.9
same,LCK (gross log cell kill),[4],1.2 and 1.2^3
"C/C(=C\c1csc(C)n1)[C@@H]1C[C@@H]2O[C@@H]2CCC[C@H](C)[C@H](O)[C@@H](C)C(=O)C(C)(C)[C@@H](O)CC(=O)O1 [BMS-212188 (Epothilone A), Epothilone A]","Polymerization Potency, EC0.01",[1],2.0 µM
same,Ratio of Polymerization Potency of Analog/Paclitaxel,[1],0.4
CC(=O)O[C@H]1C(=O)[C@@]2(C)[C@H]([C@H](OC(=O)c3ccccc3)[C@]3(O)C[C@H](OC(=O)[C@H](O)[C@@H](NC(=O)c4ccccc4)c4ccccc4)C(C)=C1C3(C)C)[C@]1(OC(C)=O)CO[C@@H]1C[C@@H]2O [Paclitaxel],"R/S, or resistance ratio",HCT116/VM46 cells,155 fold
same,LCK (gross log cell kill),[5],0.8^3
same,LCK (gross log cell kill),[6],0.55^3
same,LCK (gross log cell kill),[7],0.3^3
same,LCK (gross log cell kill),[3],0.8^3
same,LCK (gross log cell kill),[4],0.4
CCCC(=O)Nc1ccc(OCC(O)CNC(C)C)c(C(C)=O)c1 (stereo not drawn) [acebutalol],extent of absorption in humans (% absorbed),[8],40%
CN/C(=N/CCSCc1nc[nH]c1C)NC#N [cimetidine],extent of absorption in humans (% absorbed),[8],95%
same,Papp,in vitro,4.9 ×10⁻⁶ cm/s
OC[C@@H](O)[C@@H](O)[C@H](O)[C@H](O)CO [mannitol],extent of absorption in humans (% absorbed),[8],15%
same,Papp,in vitro,3.2 ×10⁻⁶ cm/s
Epothilone B [BMS-205535 (Epothilone B)],"Polymerization Potency, EC0.01",[1],1.8 µM
same,Ratio of Polymerization Potency of Analog/Paclitaxel,[1],0.3
